Values of other authors as cited in PubChem BioAssay AID1259409 (Chemical Carcinogenesis Research Information System (CCRIS), 2018).

System: rodent chemically induced tumor inhibition, incidence and multiplicity
Experiment: CCRIS tumor inhibitor studies
Details: Dose [Inhibitor]: 0, Route [Inhibitor]: ORAL

Oc1ccccc1O
tumour outcome (control, treated, inhibition, significance) (Carcinogen: N-BIS(2-HYDROXYPROPYL)NITROSAMINE, 53609-64-6, 0.8% IN DIET FOR 30 WK BEGINNING POST CARCINOGEN TREATMENT (STUDY DURATION: 32 WK), Species: RAT, Strain/Sex: F344/MALE, Target Tissue: Type of Lesion: KIDNEY: PAPILLOMA OR TRANSITIONAL CELL CARCINOMA, Dose [Carcinogen]: 0.1% IN DRINKING WATER FOR 2 WK, Promoter: NONE USED): 10%, 10%, 0%, not significant
tumour outcome (control, treated, inhibition, significance) (Carcinogen: N-BIS(2-HYDROXYPROPYL)NITROSAMINE, 53609-64-6, 0.8% IN DIET FOR 30 WK BEGINNING POST CARCINOGEN TREATMENT (STUDY DURATION: 32 WK), Species: RAT, Strain/Sex: F344/MALE, Target Tissue: Type of Lesion: LUNG: ADENOMA, Dose [Carcinogen]: 0.1% IN DRINKING WATER FOR 2 WK, Promoter: NONE USED): 100%, 95%, 5%, not calculated
tumour outcome (control, treated, inhibition, significance) (Carcinogen: N-BIS(2-HYDROXYPROPYL)NITROSAMINE, 53609-64-6, 0.8% IN DIET FOR 30 WK BEGINNING POST CARCINOGEN TREATMENT (STUDY DURATION: 32 WK), Species: RAT, Strain/Sex: F344/MALE, Target Tissue: Type of Lesion: LUNG: CARCINOMA, Dose [Carcinogen]: 0.1% IN DRINKING WATER FOR 2 WK, Promoter: NONE USED): 45%, 20%, 56%, not calculated
outcome (Carcinogen: N-BIS(2-HYDROXYPROPYL)NITROSAMINE, 53609-64-6, 0.8% IN DIET FOR 30 WK BEGINNING POST CARCINOGEN TREATMENT (STUDY DURATION: 32 WK), Species: RAT, Strain/Sex: F344/MALE, Target Tissue: Type of Lesion: THYROID: ADENOMA, Dose [Carcinogen]: 0.1% IN DRINKING WATER FOR 2 WK, Promoter: NONE USED): 5%, 5%, 0, not significant
tumour outcome (control, treated, inhibition, significance) (Carcinogen: N-BIS(2-HYDROXYPROPYL)NITROSAMINE, 53609-64-6, 0.8% IN DIET FOR 30 WK BEGINNING POST CARCINOGEN TREATMENT (STUDY DURATION: 32 WK), Species: RAT, Strain/Sex: F344/MALE, Target Tissue: Type of Lesion: THYROID: CARCINOMA, Dose [Carcinogen]: 0.1% IN DRINKING WATER FOR 2 WK, Promoter: NONE USED): 20%, 5%, 75%, not calculated
tumour outcome (control, treated, inhibition, significance) (Carcinogen: N-NITROSOBIS(2-OXOPROPYL)AMINE, 60599-38-4, 0.75% IN DIET FOR 16 WK BEGINNING 2 WK POST CARCINOGEN TREATMENT (STUDY DURATION: 20 WK), Species: HAMSTER, Strain/Sex: SYRIAN/FEMALE, Target Tissue: Type of Lesion: GALL BLADDER: ADENOMA, Dose [Carcinogen]: 70 MG/KG IN SALINE FOLLOWED 2 WK LATER BY SECOND TREATMENT): 9/18 (50%), 7/10 (70%), -40%, not calculated
tumour outcome (control, treated, inhibition, significance) (Carcinogen: N-NITROSOBIS(2-OXOPROPYL)AMINE, 60599-38-4, 0.75% IN DIET FOR 16 WK BEGINNING 2 WK POST CARCINOGEN TREATMENT (STUDY DURATION: 20 WK), Species: HAMSTER, Strain/Sex: SYRIAN/FEMALE, Target Tissue: Type of Lesion: LIVER: CHOLANGIOCARCINOMA, Dose [Carcinogen]: 70 MG/KG IN SALINE FOLLOWED 2 WK LATER BY SECOND TREATMENT): 16/18 (89%), 8/10 (80%), 10%, not calculated
tumour outcome (control, treated, inhibition, significance) (Carcinogen: N-NITROSOBIS(2-OXOPROPYL)AMINE, 60599-38-4, 0.75% IN DIET FOR 16 WK BEGINNING 2 WK POST CARCINOGEN TREATMENT (STUDY DURATION: 20 WK), Species: HAMSTER, Strain/Sex: SYRIAN/FEMALE, Target Tissue: Type of Lesion: LIVER: NEOPLASTIC NODULE, Dose [Carcinogen]: 70 MG/KG IN SALINE FOLLOWED 2 WK LATER BY SECOND TREATMENT): 18/18 (100%), 10/10 (100%), 0%, not significant
tumour outcome (control, treated, inhibition, significance) (Carcinogen: N-NITROSOBIS(2-OXOPROPYL)AMINE, 60599-38-4, 0.75% IN DIET FOR 16 WK BEGINNING 2 WK POST CARCINOGEN TREATMENT (STUDY DURATION: 20 WK), Species: HAMSTER, Strain/Sex: SYRIAN/FEMALE, Target Tissue: Type of Lesion: PANCREAS: ADENOCARCINOMA, Dose [Carcinogen]: 70 MG/KG IN SALINE FOLLOWED 2 WK BY SECOND TREATMENT): 14/18 (78%), 6/10 (60%), 23%, not calculated
tumour outcome (control, treated, inhibition, significance) (Carcinogen: N-NITROSOBIS(2-OXOPROPYL)AMINE, 60599-38-4, 1.5% IN DIET FOR 16 WK BEGINNING 2 WK POST CARCINOGEN TREATMENT (STUDY DURATION: 20 WK), Species: HAMSTER, Strain/Sex: SYRIAN/FEMALE, Target Tissue: Type of Lesion: GALL BLADDER: ADENOMA, Dose [Carcinogen]: 70 MG/KG IN SALINE FOLLOWED 2 WK LATER BY SECOND TREATMENT): 9/18 (50%), 10/17 (59%), -18%, not calculated
tumour outcome (control, treated, inhibition, significance) (Carcinogen: N-NITROSOBIS(2-OXOPROPYL)AMINE, 60599-38-4, 1.5% IN DIET FOR 16 WK BEGINNING 2 WK POST CARCINOGEN TREATMENT (STUDY DURATION: 20 WK), Species: HAMSTER, Strain/Sex: SYRIAN/FEMALE, Target Tissue: Type of Lesion: GALL BLADDER: CARCINOMA, Dose [Carcinogen]: 70 MG/KG IN SALINE FOLLOWED 2 WK LATER BY SECOND TREATMENT): 1/18 (6%), 2/17 (12%), -100%, not calculated
tumour outcome (control, treated, inhibition, significance) (Carcinogen: N-NITROSOBIS(2-OXOPROPYL)AMINE, 60599-38-4, 1.5% IN DIET FOR 16 WK BEGINNING 2 WK POST CARCINOGEN TREATMENT (STUDY DURATION: 20 WK), Species: HAMSTER, Strain/Sex: SYRIAN/FEMALE, Target Tissue: Type of Lesion: LIVER: CHOLANGIOCARCINOMA, Dose [Carcinogen]: 70 MG/KG IN SALINE FOLLOWED 2 WK LATER BY SECOND TREATMENT): 16/18 (89%), 11/17 (65%), 27%, not calculated
tumour outcome (control, treated, inhibition, significance) (Carcinogen: N-NITROSOBIS(2-OXOPROPYL)AMINE, 60599-38-4, 1.5% IN DIET FOR 16 WK BEGINNING 2 WK POST CARCINOGEN TREATMENT (STUDY DURATION: 20 WK), Species: HAMSTER, Strain/Sex: SYRIAN/FEMALE, Target Tissue: Type of Lesion: LIVER: NEOPLASTIC NODULE, Dose [Carcinogen]: 70 MG/KG IN SALINE FOLLOWED 2 WK LATER BY SECOND TREATMENT): 100%, 100%, 0%, not significant
tumour outcome (control, treated, inhibition, significance) (Carcinogen: N-NITROSOBIS(2-OXOPROPYL)AMINE, 60599-38-4, 1.5% IN DIET FOR 16 WK BEGINNING 2 WK POST CARCINOGEN TREATMENT (STUDY DURATION: 20 WK), Species: HAMSTER, Strain/Sex: SYRIAN/FEMALE, Target Tissue: Type of Lesion: PANCREAS: ADENOCARCINOMA, Dose [Carcinogen]: 70 MG/KG IN SALINE FOLLOWED 2 WK LATER BY SECOND TREATMENT): 14/18 (78%), 13/17 (76%), 3%, not calculated
